Measured values reported in patent US20250134952A1, “METHODS FOR IMPROVING THE EFFICACY OF HDAC INHIBITOR THERAPY AND PREDICTING THE RESPONSE TO TREATMENT WITH HDAC INHIBITOR” (INSTITUT NATIONAL DE LA SANTÉ ET DE LA RECHERCHE MÉDICALE, priority 2021, published 2025).

Tests used:
p21 (CDKN1a) = p21 (CDKN1a) expression by real-time PCR; assay type: cell-based, human; details: 100 nM TSA, 24 h
Protocol: (A) Representative confocal sections of MCF7shctrl and shTau cells untreated or treated with 100 nM TSA for 24 h. […] (B) Quantification of HP1α clusters per nuclei visualized as described previously and realized on three independent experiments. (C) GADD45a and (D) p21 (CDKN1a) expression in MCF7shctrl and shTau cells untreated or treated with 100 nM TSA for 24 h were analyzed by real-time PCR and normalized to RPLO. Results are expressed, relative to the basal activity set to 1, as the mean±SD of three independent assays. (E) Tau tethering prevents adjacent reporter gene activity induced by TSA. GAL4UAS responsive luciferase reporter Hela stable cell line was transfected with GAL4DBD (GAL4) or GAL4DBD-Tau4R and then, 24 h later, treated with TSA (600 nM) for 24 h. The luciferase activity was determined as described in the Materials and Methods. (F) Ectopic Tau4R expression prevents adjacent reporter gene activity induced by TSA. […] The luciferase activity was determined as described in the Materials and Methods. […]
Total RNA was prepared using RNeasyMinikit (Qiagen). Reverse transcription (RT) was performed using random hexamers as recommended by the manufacturer (Applied Biosystems). cDNAs were analyzed by PCR amplification using the TaqMan PCR master mix (Applied Biosystems) and a mix of RPLO primers and probes. […]

[1] = test system: GAPDH promoter in MCF7shctrl cells; experiment: ChIP-qPCR of H3 acetylation and Tau occupancy on the GAPDH promoter; assay type: cell-based, human; details: 100 nM TSA, GAPDH transcription start site
From the text: (A) Chromatin immunoprecipitations-qPCR analysis of H3 acetylation and Tau occupancy on the GAPDH promoter in MCF7shctrl cells in the indicated conditions. MCF7shctrl cells were subjected to cross-linking by 1% formaldehyde. Chromatin fragments were then immunoprecipitated using antibodies (Ab) against acetylated H3 (ac-H3) or Tau and analyzed by quantitative PCR for the presence of the GAPDH promoter. (B) Functional organization of the p21 promoter. (C) ChIP-qPCR analysis of H3 acetylation in MCF7shctrl or shTau cells or (D) Tau occupancy in MCF7shctrl cells on the p21 promoter. […] Chromatin fragments were then immunoprecipitated using antibodies (Ab) against acetylated H3 or Tau and analyzed by quantitative PCR for the presence of the GAL4 UAS promoter. Quantification of enrichment is represented as fold-enrichment relative to IgG. […]
To test this hypothesis, we next performed chromatin immunoprecipitations assays. […] Quantitative PCR analysis of input or immunoprecipitated DNA using acetylated H3 and Tau antibodies was carried out to detect different promoter regions. […] No change in the level of acetylated H3, nor Tau binding, were detected after TSA treatment (FIG. 3A). […] In addition, Tau was detected at the level of these regions in MCF7shctrl cells (≈4-fold enrichment) in absence or presence of TSA treatment (FIG. 3D).

SMILES: CC(/C=C/C(=O)NO)=C\[C@@H](C)C(=O)c1ccc(N(C)C)cc1 [TSA, 2,4-Heptadienamide, 7-[4-(dimethylamino)phenyl]-N-hydroxy-4,6-dimethyl-7-oxo-, (2E,4E,6R)-]
- p21 induction (RT-qPCR) (p21 (CDKN1a); MCF7shctrl cells, relative to basal): 2.5 fold
- p21 upregulation by TSA (p21 (CDKN1a); cells with reduced Tau expression (MCF7shTau) vs MCF7shctrl): exacerbated
- level of acetylated H3 and Tau binding after TSA treatment [1]: No change
